Consider 4 compounds from paper PMC3445516 (PLoS ONE, 2012).

The structures appear in SMILES notation. Read-outs that look alike come from different tables or passages of the source.

The target of one assay is p38δ (Homo sapiens, UniProt O15264). As to the kind of experiment: In vitro radiometric p38 kinase assay. The class given is biochemical. As to the method: To confirm that p38 was indeed a target of the 4-azaindole, the inhibition of p38 by the twenty-eight PKD1 inhibitors was evaluated using an in vitro radiometric p38 kinase assay. […] Taken together, our data has identified a novel PKD1 inhibitor scaffold that is active for p38α, but not for PKC, CAMK and p38δ.
(§1) Phosphorylation of 3.5 µg of p38 substrate was detected in a reaction having 1 µCi [γ-^32P] ATP (Perkin Elmer Life Sciences), 50 µM ATP, 50 ng active recombinant p38 in 50 µL kinase buffer containing 25 mM Tris-HCl, pH 7.5, 10 mM MgCl2, 5 mM β-glycerophosphate, 0.1 mM Na3VO4 and 2 mM DTT. The reaction was incubated at 30°C for 10 minutes and 25 µL of the reaction was spotted on Whatman P81 filter paper. The filter paper was washed 3 times in 0.5% phosphoric acid, air dried and counted using Beckman LS6500 multipurpose scintillation counter. Percent p38 inhibition was graphed using GraphPad Prism software 5.0.

The target of assay [1] is T1, recombinant GST-tagged human protein kinase D1 (PKD1) (Homo sapiens, UniProt Q15139).
T1 construct: purchased Enzo Life sciences (Farmingdale, NY)
T1 sequence (Q15139 1-912): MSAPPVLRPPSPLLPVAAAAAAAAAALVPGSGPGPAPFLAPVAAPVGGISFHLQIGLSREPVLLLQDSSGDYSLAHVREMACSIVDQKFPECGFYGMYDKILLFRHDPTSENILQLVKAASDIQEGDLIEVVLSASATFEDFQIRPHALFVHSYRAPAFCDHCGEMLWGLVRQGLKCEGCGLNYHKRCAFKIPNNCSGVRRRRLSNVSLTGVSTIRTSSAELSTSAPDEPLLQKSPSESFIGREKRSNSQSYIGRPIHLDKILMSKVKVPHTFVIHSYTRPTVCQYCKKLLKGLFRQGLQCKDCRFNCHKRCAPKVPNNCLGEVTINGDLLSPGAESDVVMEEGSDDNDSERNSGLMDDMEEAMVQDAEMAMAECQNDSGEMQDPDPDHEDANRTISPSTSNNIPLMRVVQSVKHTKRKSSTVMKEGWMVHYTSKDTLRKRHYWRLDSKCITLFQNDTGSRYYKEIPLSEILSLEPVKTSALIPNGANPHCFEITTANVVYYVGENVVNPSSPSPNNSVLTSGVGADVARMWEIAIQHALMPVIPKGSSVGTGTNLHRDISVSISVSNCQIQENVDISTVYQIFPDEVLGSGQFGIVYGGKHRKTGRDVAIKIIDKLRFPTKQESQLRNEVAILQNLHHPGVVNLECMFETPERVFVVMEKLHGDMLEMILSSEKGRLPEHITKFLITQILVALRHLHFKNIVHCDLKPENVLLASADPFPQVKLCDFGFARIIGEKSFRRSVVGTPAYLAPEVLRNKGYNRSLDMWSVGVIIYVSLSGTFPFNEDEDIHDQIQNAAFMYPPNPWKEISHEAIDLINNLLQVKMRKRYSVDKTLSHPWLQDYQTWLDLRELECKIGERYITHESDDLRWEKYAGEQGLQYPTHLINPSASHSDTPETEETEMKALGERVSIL
As to the kind of experiment: In vitro radiometric PKD1 kinase assay. It is filed as biochemical. The settings on record: for inhibition at 1 µM: read-out: Inhibition of PKD1. The protocol:
All compounds were given distinct UPCMLD (University of Pittsburgh Center for Chemical Methodologies and Library Development) IDs and were then assigned numerical IDs for convenient data display. Evaluation of each compound was carried out in triplicate at a single concentration (1 µM). Our previously described PKD1 inhibitor, kb-NB142-70, and DMSO (solvent alone) were used as positive and negative controls, respectively. Percent residual kinase activity was calculated based on that of the negative control (DMSO).
Kinase active recombinant GST-tagged human protein kinase D1 (PKD1) was obtained from Enzo Life sciences (Farmingdale, NY). DMSO was purchased from Sigma. Recombinant PKCα, PKCδ and CAMKIIα were obtained from SignalChem (Richmond, BC, Canada). ATP was purchased from Fisher Scientific. HDAC5 substrate peptide was synthesized by Biobasic Canada Inc. (Markham, ON). Myelin basic protein 4–14 was purchased from AnaSpec Inc. (Fremont, CA). The targeted kinase inhibitor library was obtained from Hoffmann-La Roche, Inc.
1.2 µg of HDAC-5 was used as substrate in the reaction. Phosphorylation of HDAC5 was detected in a kinase reaction having 1 µCi [γ-^32P] […] The reaction was incubated at 30° for 10 minutes and 25 µL of the reaction was spotted on Whatman P81 filter paper. The filter paper was washed 3 times in 0.5% phosphoric acid, air dried and counted using Beckman LS6500 multipurpose scintillation counter. Percent PKD1 inhibition was graphed using GraphPad Prism software 5.0.

Assay [2] deals with LPS-stimulated TNFα synthesis. Also on record: method as in PMID 14561090. The settings on record: acute rat model of LPS-stimulated TNFα synthesis; cited from earlier work.
For a further assay, the target named is p38α (Homo sapiens, UniProt Q16539). The following applies: 10 and 100 nM. The protocol: as §1
For assay [3], the target named is T2, endogenous PKD1 in LNCaP prostate cancer cells (Homo sapiens, UniProt Q15139).
T2 construct: endogenous in cells; host or cells: LNCaP prostate cancer cells
T2 sequence (Q15139 1-912): T1 sequence (Q15139 1-912)
In words: PMA-induced activation of PKD1 in LNCaP cells (immunoblot pS916 / pS744/748). The following applies: PMA 10 nM. It is filed as cell-based. As to the method: (§2) PMA induces PKC-dependent phosphorylation of Ser744/748 (S^744/748) in the activation loop followed by autophosphorylation of PKD1 on Ser916 (S^916) in the C-terminus, [31]. The catalytic activity of PKD1 correlates well with the level of phosphorylation at S^916 [31].
(§3) Figure 5 In vitro IC50, cellular activity, and mode of action of representative compounds. […] IC50 values were calculated based on the dose-response curve. Data are represented as mean ± SEM of 3 independent experiments. […] Cell lysates were subjected to immunoblotting for pS^916-PKD1 and pS^744/748-PKD1. Tubulin was blotted as loading control. The experiments were repeated three times and representative blots are shown. C.
In general terms: Immunoblotting shows a protein as a band on a membrane.

Another assay addresses T3, PKD1 (Homo sapiens, UniProt Q15139).
T3 construct: purchased Enzo Life sciences (Farmingdale, NY)
As to the kind of experiment: Kinetic analysis, Lineweaver-Burk plots (ATP competition). The class given is biochemical. As to the method:
as §2, §3

For a further assay, the target named is PKCδ (Homo sapiens, UniProt Q05655). In words: In vitro radiometric PKC kinase assay. The class given is biochemical. Also noted: purchased SignalChem (Richmond, BC, Canada). The protocol: (§4) In this study, we counter-screened the twenty-eight PKD1 inhibitory agents for inhibition of PKCα, PKCδ and CAMKIIα in order to get an initial profile for the potential PKD selectivity, since these are the functionally most closely related kinases. The compounds were examined at 0.1, 1 and 10 µM concentration. […] Next, the inhibitory activity for CAMKIIα was examined.
(§5) The PKC kinase assay was carried out by co-incubating 1 µCi [γ-^32P]ATP, 20 µM ATP, 50 ng of purified PKCα or PKCδ and 5 µg of myelin basic protein 4–14, 0.25 mg/mL bovine serum albumin, 0.1 mg/mL phosphatidylcholine/phosphatidylserine (80/20%) (1 µM), 1 µM phorbol dibutyrate in 50 µL of kinase buffer containing 50 mM Tris-HCl, pH 7.5, 4 mM MgCl2 and 10 mM β-mercaptoethanol. For the CAMK assay, 50 ng of CAMK and 2 µg Syntide-2 substrate in 50 µL kinase buffer were incubated with 0.1 mM MgCl2, 1 µCi of [γ-^32P] ATP, 70 µM ATP. 0.5 mM CaCl2 and 30 ng/µL calmodulin were preincubated for 15 min on ice and then added in the kinase reaction. The reactions were incubated at 30°C for 10 minutes and 25 µL of the reaction was spotted on Whatman P81 filter paper. The filter paper was washed 3 times in 0.5% phosphoric acid, air dried and counted using Beckman LS6500 multipurpose scintillation counter.

For a further assay, the target named is T4, PKCα (Homo sapiens, UniProt P17252).
T4 construct: purchased SignalChem (Richmond, BC, Canada)
As to the kind of experiment: In vitro radiometric PKC kinase assay. It is filed as biochemical. The settings on record: 0.1, 1 and 10 µM; positive control. As to the method:
as §4, §5

Setting [4] is: 1 µM, triplicate determinations.

p38δ, sequence (O15264 whole entry): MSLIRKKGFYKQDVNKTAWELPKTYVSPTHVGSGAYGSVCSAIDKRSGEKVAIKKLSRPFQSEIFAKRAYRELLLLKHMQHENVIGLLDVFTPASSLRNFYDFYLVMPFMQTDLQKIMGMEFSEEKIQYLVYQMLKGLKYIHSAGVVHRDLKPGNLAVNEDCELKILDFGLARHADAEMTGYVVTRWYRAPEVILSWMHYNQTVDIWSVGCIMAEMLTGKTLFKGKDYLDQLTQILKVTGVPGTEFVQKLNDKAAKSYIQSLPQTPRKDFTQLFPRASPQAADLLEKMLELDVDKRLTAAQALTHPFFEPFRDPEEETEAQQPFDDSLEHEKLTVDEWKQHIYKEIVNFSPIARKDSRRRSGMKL
PKCδ, sequence (Q05655 whole entry): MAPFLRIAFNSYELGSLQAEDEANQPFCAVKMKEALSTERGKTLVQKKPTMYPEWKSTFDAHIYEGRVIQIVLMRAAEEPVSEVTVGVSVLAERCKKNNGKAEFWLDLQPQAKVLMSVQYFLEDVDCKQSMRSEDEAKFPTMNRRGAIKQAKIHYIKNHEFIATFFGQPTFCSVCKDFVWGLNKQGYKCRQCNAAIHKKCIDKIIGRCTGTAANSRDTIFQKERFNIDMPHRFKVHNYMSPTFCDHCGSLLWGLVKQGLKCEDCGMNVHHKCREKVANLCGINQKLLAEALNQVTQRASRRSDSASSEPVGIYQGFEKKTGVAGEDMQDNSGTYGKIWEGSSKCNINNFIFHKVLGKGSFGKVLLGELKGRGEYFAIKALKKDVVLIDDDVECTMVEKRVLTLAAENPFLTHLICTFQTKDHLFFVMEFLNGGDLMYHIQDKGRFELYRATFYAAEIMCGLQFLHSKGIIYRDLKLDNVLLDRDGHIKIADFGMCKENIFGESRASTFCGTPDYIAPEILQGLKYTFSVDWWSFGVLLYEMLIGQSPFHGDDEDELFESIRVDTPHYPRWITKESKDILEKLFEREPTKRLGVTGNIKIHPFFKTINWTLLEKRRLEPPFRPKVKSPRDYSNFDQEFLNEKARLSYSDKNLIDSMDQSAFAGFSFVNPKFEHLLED
p38α, sequence (Q16539 whole entry): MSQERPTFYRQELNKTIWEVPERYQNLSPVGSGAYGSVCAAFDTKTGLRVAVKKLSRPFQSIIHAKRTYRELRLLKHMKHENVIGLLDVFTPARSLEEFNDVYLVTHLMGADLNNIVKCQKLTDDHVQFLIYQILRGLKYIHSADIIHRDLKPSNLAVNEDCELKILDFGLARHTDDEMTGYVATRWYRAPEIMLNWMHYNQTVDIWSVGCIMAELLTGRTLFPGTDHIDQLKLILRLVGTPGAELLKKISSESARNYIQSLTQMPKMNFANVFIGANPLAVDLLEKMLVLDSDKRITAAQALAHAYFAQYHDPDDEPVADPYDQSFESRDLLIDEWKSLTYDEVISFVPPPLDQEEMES

One may read the inhibition as the percentage by which the read-out fell short of the control. On to `COc1cc[nH]c1/C=C1\C(=O)Nc2ccc(F)c(C#CC3(O)CCNCC3)c21` [Compound 15], for which the inhibition at 1 µM against p38δ is at least 50%; in assay [1] (setting [4]), 97%.

As a reminder, the IC50 is the midpoint of a concentration-inhibition curve. Regarding `CC(CO)Nc1cc(-c2[nH]c3cccnc3c2-c2ccc(F)cc2)ccn1` (centres unmarked) [Compound 139], the in vivo efficacy entry in assay [2] is given as “in vivo efficacy has been demonstrated”. Further, the “inhibition of p38α” value at p38α is given as “most potent”. The IC50 in assay [1] (dose-response, mean ± SEM of 3 independent experiments) came to 0.0168 µM; in assay [3] (densitometry of pS916-PKD1 levels, read-out: cellular IC50 for inhibition of PKD1), 1.5 µM. Moreover, the inhibition at 1 µM in assay [1] amounted to 94%. Moreover, the “effect on PKC-induced transphosphorylation at S744/748” value in assay [3] is “did not affect”. At PKD1, the “mode of inhibition with respect to ATP” value was “competitive with respect to ATP”.

Regarding `O=C1N=C(N[C@@H](CO)Cc2ccccc2)S/C1=C\c1ccc2ncccc2c1` [Compound 198], the inhibition at 1 µM is at least 50% at p38δ and 62% in assay [1] (setting [4]). In addition, the inhibition at 10 µM on PKCδ (10 µM, read-out: inhibition of PKCδ) is around 70%.

`CN(C)CCCn1cc(C2=C(c3c[nH]c4ccccc34)C(=O)NC2=O)c2ccccc21` [GF109203X, reference compound]: the “inhibition of PKCδ” value on PKCδ (0.1, 1 and 10 µM, positive control) is “strongly inhibited”. Besides, the “inhibition of PKCα” value at PKCα is “strongly inhibited”.
